Results taken from US10626103B2, “Inhibitor of lysine specific demethylase-1” (CELGENE QUANTICEL RESEARCH, INC., priority 2014, dated 2020).

How the values were obtained:
[1] = test system: CD11b expression in THP-1 (AML) cells; experiment: LSD1 CD11b cellular assay (flow cytometry); assay type: cell-based; conditions: Homo sapiens, 96 h, THP-1 cells, 4 days
Outline: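 THP-1 cells were exposed to serially diluted compounds (0.2% DMSO final) for 4 days at 37 °C. CD11b expression was measured by flow cytometry with DAPI staining. The percent of CD11b-positive cells per concentration gave the IC50 curve.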

[2] = test system: Kasumi-1 AML cancer cell line; experiment: Kasumi-1 AML cell line proliferation assay (Cell-MTS assay); assay type: cell-based; conditions: Homo sapiens, Kasumi-1 cells, 168 hours
Excerpt: Colorimetric cellular assay to assess the ability of LSD-1 small molecule inhibitors to effect the proliferation of the established AML cancer cell line Kasumi-1.
This Cell-MTS assay is a 7-day plate based colorimetric assay which quantifies the amount of newly generated NADH in the presence and absence of test compound. These NADH levels are used as a proxy for the quantification of cancer cell proliferation.
The established cancer cell line Kasumi-1 with a verified p53 mutation were purchased from American Type Culture Collection (ATCC) and routinely passaged according to ATCC published protocols. For routine assay these cells were seeded at a density of 20,000 cells per 96-well. 24 hours after plating, cells received an 11 point dilution of test compound with final concentration ranges from 100 LM to 2.0 nM. Cells are incubated in the presence of compound for 168 hours at 37° C., 5% CO2. At the end of this compound incubation period, 80 μl of media is removed and 20 μL of CellTiter 96® AQueous Non-Radioactive Cell Proliferation Assay solution (Promega) is added. The cells are incubated until the OD490 is >0.6. IC50 values are calculated using the IDBS XLfit software package and include background subtracted OD490 values and normalization to DMSO controls.
Table 5 provides the Kasumi-1 cellular IC50 values of various substituted heterocyclic compounds disclosed herein.

[3] = biological target: full-length human LSD1 (Homo sapiens (Human), UniProt O60341); experiment: In vitro enzyme inhibition assay LSD-1 (TR-FRET); assay type: biochemical; conditions: H3K4me1-biotin peptide
Outline: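 Demethylase activity of full-length human LSD1 was detected by TR-FRET after 1 hour incubation at room temperature. Excitation was at 320 nm, with emission at 615 nm and 665 nm. IC50 values were derived from the inhibition data.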

## COc1ccc(-n2c(-c3ccc(C#N)c(F)c3)nc(C(=O)N3CCC[C@@H](N)C3)c2F)cc1F [Example 67, 4-[4-[(3R)-3-Aminopiperidine-1-carbonyl]-5-fluoro-1-(3-fluoro-4-methoxyphenyl)imidazol-2-yl]-2-fluorobenzonitrile]
[1]
  IC50: < 0.1 µM
[2]
  IC50: ≤ 0.1 µM
[3]
  IC50: < 0.1 µM

## Cn1nc2ccc(-n3c(-c4ccc(C#N)c(F)c4)nc(C(=O)N4CCC[C@@H](N)C4)c3Cl)cc2c1Cl [Example 76, 4-[4-[(3R)-3-Aminopiperidine-1-carbonyl]-5-chloro-1-(3-chloro-2-methylindazol-5-yl)imidazol-2-yl]-2-fluorobenzonitrile]
[1]
  IC50: < 0.1 µM
[2]
  IC50: ≤ 0.1 µM
[3]
  IC50: < 0.1 µM

## COc1ccc(-n2c(-c3ccc(C#N)c(F)c3)nc(C(=O)N3CC[C@H](N)C3)c2C)cc1 [Example 14, 4-[4-[(3S)-3-aminopyrrolidine-1-carbonyl]-1-(4-methoxyphenyl)-5-methylimidazol-2-yl]-2-fluorobenzonitrile]
[1]
  IC50: < 0.1 µM
[2]
  IC50: ≤ 0.1 µM
[3]
  IC50: < 0.1 µM
